Data reported in patent publication US10792289B2 (Horizon Orphan LLC, priority 2009, dated 2020).
Where two headings read alike, the source gives them in different places.

Tested on: P. aeruginosa isolates
Test: Phase 2 study: MIC of P. aeruginosa isolates to levofloxacin
Assay type: cell-based
Details: Pseudomonas aeruginosa
Description: Efficacy was evaluated by microbiologic assessment of sputum samples, time to need for anti-pseudomonal antimicrobials, the Cystic Fibrosis Questionaire-Revised (CFQ-R), and pulmonary function tests. […] Pair-wise comparisons between all the treatment arms were conducted as secondary analyses.

C[C@H]1COc2c(N3CCN(C)CC3)c(F)cc3c(=O)c(C(=O)O)cn1c23 [Levofloxacin, levofloxacin]
10.9 µg/mL: MIC (168 h, read-out: MIC to levofloxacin (all organisms), mean (SD), Table 14, EE, 240 mg QD, Day 7)
13 µg/mL: MIC (168 h, read-out: Highest MIC to levofloxacin, mean (SD), MITT, 240 mg BID, Day 7)
9.6 µg/mL: MIC (168 h, read-out: MIC to levofloxacin (all organisms), mean (SD), MITT, 120 mg QD, Day 7)
13.1 µg/mL: MIC (168 h, read-out: MIC to levofloxacin (all organisms), mean (SD), Table 14, EE, 240 mg BID, Day 7)
8 µg/mL: MIC50 (24 h, MITT, 120 mg QD, Day 1, read-out: Highest MIC, MIC50) | MIC50 (24 h, Table 14, EE, 120 mg QD, Day 1, read-out: MIC50 (all organisms)) | MIC50 (168 h, MITT, 120 mg QD, Day 7, read-out: Highest MIC, MIC50) | MIC50 (168 h, Table 14, EE, 120 mg QD, Day 7, read-out: MIC50 (all organisms)) | MIC50 (336 h, MITT, 120 mg QD, Day 14, read-out: Highest MIC, MIC50) | MIC50 (336 h, MITT, 240 mg QD, Day 14, read-out: Highest MIC, MIC50) | MIC50 (336 h, MITT, combined 240 mg QD and BID, Day 14, read-out: Highest MIC, MIC50)
6.8 µg/mL: MIC (168 h, read-out: MIC to levofloxacin (all organisms), mean (SD), EE, 240 mg QD, Day 7)
8.8 µg/mL: MIC (168 h, read-out: MIC to levofloxacin (all organisms), mean (SD), EE, 240 mg BID, Day 7)
9.9 µg/mL: MIC (168 h, read-out: MIC to levofloxacin (all organisms), mean (SD), EE, 120 mg QD, Day 7)
15.2 µg/mL: MIC (168 h, read-out: Highest MIC to levofloxacin, mean (SD), MITT, 120 mg QD, Day 7)
6 µg/mL: MIC50 (24 h, MITT, 240 mg BID, Day 1, read-out: Highest MIC, MIC50) | MIC50 (24 h, Table 14, EE, 240 mg BID, Day 1, read-out: MIC50 (all organisms)) | MIC50 (168 h, MITT, 240 mg BID, Day 7, read-out: Highest MIC, MIC50) | MIC50 (336 h, MITT, 120 mg QD, Day 14, read-out: MIC50 (all organisms)) | MIC50 (336 h, MITT, 240 mg BID, Day 14, read-out: Highest MIC, MIC50)
10.5 µg/mL: MIC (168 h, read-out: Highest MIC to levofloxacin, mean (SD), MITT, 240 mg QD, Day 7)
7.6 µg/mL: MIC (168 h, read-out: MIC to levofloxacin (all organisms), mean (SD), MITT, combined 240 mg QD and BID, Day 7)
8.6 µg/mL: MIC (168 h, read-out: MIC to levofloxacin (all organisms), mean (SD), MITT, 240 mg BID, Day 7)
11.9 µg/mL: MIC (168 h, read-out: MIC to levofloxacin (all organisms), mean (SD), Table 14, EE, combined 240 mg QD and BID, Day 7)
7.8 µg/mL: MIC (168 h, read-out: MIC to levofloxacin (all organisms), mean (SD), EE, combined 240 mg QD and BID, Day 7)
4 µg/mL: MIC50 (24 h, EE, 120 mg QD, Day 1, read-out: MIC50 (all organisms)) | MIC50 (24 h, EE, 240 mg BID, Day 1, read-out: MIC50 (all organisms)) | MIC50 (24 h, EE, 240 mg QD, Day 1, read-out: MIC50 (all organisms)) | MIC50 (24 h, EE, combined 240 mg QD and BID, Day 1, read-out: MIC50 (all organisms)) | MIC50 (24 h, MITT, 120 mg QD, Day 1, read-out: MIC50 (all organisms)) | MIC50 (24 h, MITT, 240 mg BID, Day 1, read-out: MIC50 (all organisms)) | MIC50 (24 h, MITT, 240 mg QD, Day 1, read-out: Highest MIC, MIC50) | MIC50 (24 h, MITT, 240 mg QD, Day 1, read-out: MIC50 (all organisms)) | MIC50 (24 h, MITT, combined 240 mg QD and BID, Day 1, read-out: Highest MIC, MIC50) | MIC50 (24 h, MITT, combined 240 mg QD and BID, Day 1, read-out: MIC50 (all organisms)) | MIC50 (24 h, Table 14, EE, 240 mg QD, Day 1, read-out: MIC50 (all organisms)) | MIC50 (24 h, Table 14, EE, combined 240 mg QD and BID, Day 1, read-out: MIC50 (all organisms)) | MIC50 (168 h, EE, 120 mg QD, Day 7, read-out: MIC50 (all organisms)) | MIC50 (168 h, EE, 240 mg BID, Day 7, read-out: MIC50 (all organisms)) | MIC50 (168 h, EE, combined 240 mg QD and BID, Day 7, read-out: MIC50 (all organisms)) | MIC50 (168 h, MITT, 120 mg QD, Day 7, read-out: MIC50 (all organisms)) | MIC50 (168 h, MITT, 240 mg BID, Day 7, read-out: MIC50 (all organisms)) | MIC50 (168 h, MITT, 240 mg QD, Day 7, read-out: Highest MIC, MIC50) | MIC50 (168 h, MITT, 240 mg QD, Day 7, read-out: MIC50 (all organisms)) | MIC50 (168 h, MITT, combined 240 mg QD and BID, Day 7, read-out: Highest MIC, MIC50) | MIC50 (168 h, MITT, combined 240 mg QD and BID, Day 7, read-out: MIC50 (all organisms)) | MIC50 (168 h, Table 14, EE, 240 mg BID, Day 7, read-out: MIC50 (all organisms)) | MIC50 (168 h, Table 14, EE, 240 mg QD, Day 7, read-out: MIC50 (all organisms)) | MIC50 (336 h, EE, 120 mg QD, Day 14, read-out: MIC50 (all organisms)) | MIC50 (336 h, EE, 240 mg BID, Day 14, read-out: MIC50 (all organisms)) | MIC50 (336 h, EE, 240 mg QD, Day 14, read-out: MIC50 (all organisms)) | MIC50 (336 h, EE, combined 240 mg QD and BID, Day 14, read-out: MIC50 (all organisms)) | MIC50 (336 h, MITT, 240 mg BID, Day 14, read-out: MIC50 (all organisms)) | MIC50 (336 h, MITT, 240 mg QD, Day 14, read-out: MIC50 (all organisms))
16 µg/mL: MIC90 (24 h, EE, 240 mg BID, Day 1, read-out: MIC90 (all organisms)) | MIC90 (24 h, EE, 240 mg QD, Day 1, read-out: MIC90 (all organisms)) | MIC90 (24 h, EE, combined 240 mg QD and BID, Day 1, read-out: MIC90 (all organisms)) | MIC90 (24 h, MITT, 240 mg BID, Day 1, read-out: MIC90 (all organisms)) | MIC90 (24 h, MITT, 240 mg QD, Day 1, read-out: MIC90 (all organisms)) | MIC90 (24 h, MITT, combined 240 mg QD and BID, Day 1, read-out: MIC90 (all organisms)) | MIC90 (168 h, EE, 120 mg QD, Day 7, read-out: MIC90 (all organisms)) | MIC90 (168 h, EE, 240 mg BID, Day 7, read-out: MIC90 (all organisms)) | MIC90 (168 h, EE, 240 mg QD, Day 7, read-out: MIC90 (all organisms)) | MIC90 (168 h, EE, combined 240 mg QD and BID, Day 7, read-out: MIC90 (all organisms)) | MIC90 (168 h, MITT, 120 mg QD, Day 7, read-out: MIC90 (all organisms)) | MIC90 (168 h, MITT, 240 mg BID, Day 7, read-out: MIC90 (all organisms)) | MIC90 (168 h, MITT, 240 mg QD, Day 7, read-out: Highest MIC, MIC90) | MIC90 (168 h, MITT, 240 mg QD, Day 7, read-out: MIC90 (all organisms)) | MIC90 (168 h, MITT, combined 240 mg QD and BID, Day 7, read-out: Highest MIC, MIC90) | MIC90 (168 h, MITT, combined 240 mg QD and BID, Day 7, read-out: MIC90 (all organisms)) | MIC90 (168 h, Table 14, EE, 240 mg QD, Day 7, read-out: MIC90 (all organisms)) | MIC90 (336 h, EE, 240 mg BID, Day 14, read-out: MIC90 (all organisms)) | MIC90 (336 h, EE, 240 mg QD, Day 14, read-out: MIC90 (all organisms)) | MIC90 (336 h, EE, combined 240 mg QD and BID, Day 14, read-out: MIC90 (all organisms)) | MIC90 (336 h, MITT, 240 mg BID, Day 14, read-out: MIC90 (all organisms)) | MIC90 (336 h, MITT, 240 mg QD, Day 14, read-out: Highest MIC, MIC90) | MIC90 (336 h, MITT, 240 mg QD, Day 14, read-out: MIC90 (all organisms))
11.8 µg/mL: MIC (168 h, read-out: Highest MIC to levofloxacin, mean (SD), MITT, combined 240 mg QD and BID, Day 7)
2 µg/mL: MIC50 (168 h, EE, 240 mg QD, Day 7, read-out: MIC50 (all organisms))
6.7 µg/mL: MIC (168 h, read-out: MIC to levofloxacin (all organisms), mean (SD), MITT, 240 mg QD, Day 7)
15.7 µg/mL: MIC (168 h, read-out: MIC to levofloxacin (all organisms), mean (SD), Table 14, EE, 120 mg QD, Day 7)
32 µg/mL: MIC90 (24 h, EE, 120 mg QD, Day 1, read-out: MIC90 (all organisms)) | MIC90 (24 h, MITT, 120 mg QD, Day 1, read-out: Highest MIC, MIC90) | MIC90 (24 h, MITT, 120 mg QD, Day 1, read-out: MIC90 (all organisms)) | MIC90 (24 h, MITT, 240 mg BID, Day 1, read-out: Highest MIC, MIC90) | MIC90 (24 h, MITT, 240 mg QD, Day 1, read-out: Highest MIC, MIC90) | MIC90 (24 h, MITT, combined 240 mg QD and BID, Day 1, read-out: Highest MIC, MIC90) | MIC90 (24 h, Table 14, EE, 120 mg QD, Day 1, read-out: MIC90 (all organisms)) | MIC90 (24 h, Table 14, EE, 240 mg BID, Day 1, read-out: MIC90 (all organisms)) | MIC90 (24 h, Table 14, EE, 240 mg QD, Day 1, read-out: MIC90 (all organisms)) | MIC90 (24 h, Table 14, EE, combined 240 mg QD and BID, Day 1, read-out: MIC90 (all organisms)) | MIC90 (168 h, MITT, 120 mg QD, Day 7, read-out: Highest MIC, MIC90) | MIC90 (168 h, MITT, 240 mg BID, Day 7, read-out: Highest MIC, MIC90) | MIC90 (168 h, Table 14, EE, 120 mg QD, Day 7, read-out: MIC90 (all organisms)) | MIC90 (168 h, Table 14, EE, 240 mg BID, Day 7, read-out: MIC90 (all organisms)) | MIC90 (168 h, Table 14, EE, combined 240 mg QD and BID, Day 7, read-out: MIC90 (all organisms)) | MIC90 (336 h, MITT, 120 mg QD, Day 14, read-out: Highest MIC, MIC90) | MIC90 (336 h, MITT, 120 mg QD, Day 14, read-out: MIC90 (all organisms)) | MIC90 (336 h, MITT, 240 mg BID, Day 14, read-out: Highest MIC, MIC90) | MIC90 (336 h, MITT, combined 240 mg QD and BID, Day 14, read-out: Highest MIC, MIC90)
37 µg/mL: MIC90 (336 h, EE, 120 mg QD, Day 14, read-out: MIC90 (all organisms))
